# Several values for one entry are separate records, joined by “and”; a condition that tells them apart may be missing. Equal values may be shown once. Positions of bridges follow the written chain, without caps; N, C: chain ends. Residues, ends and D or L forms follow the SMILES beside them. No end group written: not given here. *: point of attachment. PhAc = O=C(Cc1ccccc1)*
# Assays:
# [1] = system: Porcine peripheral blood lymphocytes; assay: In vitro porcine allograft model, transendothelial lymphocyte migration; format: cell-based; details: 10 μg/ml in the medium, IL-1β-stimulated SMC
# Method: A similar study is carried out in vitro using porcine coronary artery endothelial cells (EC; as are present in the IEL) and smooth muscle cells (SMC; as are present in the medial layer of the artery). The two cell types are cultured using a membrane transwell system, with the SMC on the bottom layer in M-199 medium (Gibco Labs.). The SMC are stimulated with 100 ng/ml of interleukin-1β (IL-1β) for 24 hours prior to the start of the assay. Porcine peripheral blood lymphocytes are separated by Ficoll-Hypaque, radiolabeled and incubated overnight (about 18 hours) on the EC.
# Transendothelial lymphocyte migration in the IL-1β-stimulated SMC is observed as compared to unstimulated SMC (p<0.05).
# [2] = in vivo; cited from earlier work
# [3] = Retention of potency in PBS containing 10 percent mouse or human serum; format: in vitro ADME; details: PBS at 7.2-7.4 with 10 percent mouse or human serum
# VLA-4/sVCAM-1 = molecular target: T1, VLA-4/sVCAM-1 (Homo sapiens, UniProt P05556+P13612); assay: In vitro inhibition of binding of Jurkat cells to solid phase-bound sVCAM-1; format: cell-based
# T1 construct: host or cells: Jurkat cells (VLA-4). sVCAM-1 was made in house in transfected human 293 cells (ATCC CRL 1573) and purified from supernatant
# T1 sequence (P13612 34-1032): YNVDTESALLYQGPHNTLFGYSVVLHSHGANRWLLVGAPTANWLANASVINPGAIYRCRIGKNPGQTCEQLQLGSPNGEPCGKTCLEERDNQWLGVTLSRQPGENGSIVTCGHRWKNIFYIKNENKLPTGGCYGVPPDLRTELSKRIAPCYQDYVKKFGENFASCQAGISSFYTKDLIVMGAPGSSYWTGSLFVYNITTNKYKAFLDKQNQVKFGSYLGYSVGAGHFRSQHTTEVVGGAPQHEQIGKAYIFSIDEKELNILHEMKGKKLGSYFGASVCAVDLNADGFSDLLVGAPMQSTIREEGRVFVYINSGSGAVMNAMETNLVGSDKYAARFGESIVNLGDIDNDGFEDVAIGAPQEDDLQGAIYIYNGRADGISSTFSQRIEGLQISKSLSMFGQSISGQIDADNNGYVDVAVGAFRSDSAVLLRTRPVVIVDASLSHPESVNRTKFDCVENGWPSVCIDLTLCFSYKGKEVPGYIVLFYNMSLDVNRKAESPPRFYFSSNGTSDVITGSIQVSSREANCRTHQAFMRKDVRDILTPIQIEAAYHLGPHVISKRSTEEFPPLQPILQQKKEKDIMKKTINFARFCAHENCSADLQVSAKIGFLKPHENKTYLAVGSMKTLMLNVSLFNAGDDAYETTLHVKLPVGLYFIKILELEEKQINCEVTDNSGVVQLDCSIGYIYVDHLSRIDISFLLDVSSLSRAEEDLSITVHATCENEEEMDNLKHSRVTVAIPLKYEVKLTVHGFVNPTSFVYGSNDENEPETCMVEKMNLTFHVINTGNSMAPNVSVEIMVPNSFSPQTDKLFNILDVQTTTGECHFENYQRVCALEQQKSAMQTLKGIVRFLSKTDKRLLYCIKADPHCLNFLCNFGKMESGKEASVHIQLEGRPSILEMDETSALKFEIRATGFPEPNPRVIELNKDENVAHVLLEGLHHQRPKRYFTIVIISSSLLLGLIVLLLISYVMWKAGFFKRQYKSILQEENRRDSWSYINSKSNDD
# T1 sequence (P05556 21-798): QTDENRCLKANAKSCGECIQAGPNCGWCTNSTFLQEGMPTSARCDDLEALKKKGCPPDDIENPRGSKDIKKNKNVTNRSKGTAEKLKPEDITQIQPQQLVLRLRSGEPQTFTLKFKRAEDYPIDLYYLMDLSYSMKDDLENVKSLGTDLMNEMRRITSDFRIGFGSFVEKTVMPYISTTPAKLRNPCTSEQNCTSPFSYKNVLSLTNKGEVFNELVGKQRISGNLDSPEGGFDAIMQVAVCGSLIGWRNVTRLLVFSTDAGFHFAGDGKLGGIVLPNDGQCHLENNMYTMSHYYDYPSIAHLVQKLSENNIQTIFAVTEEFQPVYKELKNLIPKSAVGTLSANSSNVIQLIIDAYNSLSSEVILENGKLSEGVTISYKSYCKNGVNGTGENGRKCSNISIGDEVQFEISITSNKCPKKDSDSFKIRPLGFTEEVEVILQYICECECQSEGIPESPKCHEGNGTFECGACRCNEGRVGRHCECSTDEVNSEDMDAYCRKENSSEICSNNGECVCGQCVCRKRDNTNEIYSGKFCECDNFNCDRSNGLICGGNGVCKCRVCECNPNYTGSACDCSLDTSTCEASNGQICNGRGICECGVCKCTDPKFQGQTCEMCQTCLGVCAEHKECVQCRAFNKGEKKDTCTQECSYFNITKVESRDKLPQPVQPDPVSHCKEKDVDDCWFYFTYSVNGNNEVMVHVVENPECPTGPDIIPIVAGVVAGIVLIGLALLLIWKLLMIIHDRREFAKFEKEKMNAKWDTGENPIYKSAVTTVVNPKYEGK
# Method: Assays conducted using sVCAM-1 as solid phase-bound antigen were carried out substantially identically to those using CS-1. The sVCAM-1 polypeptide used had the same amino acid residue sequence as the materials described in Lobb et al., Biochem. Biophys. Res. Commun., 178:1498-1504 (1991) and Cybulsky et al., Proc. Natl. Acad. Sci., USA, 88:7859-7863 (1991). Human embryonal kidney line 293 (ATCC CRL 1573) cells were co-transfected with a plasmid (pCDNAI;invitrogen) containing the sVCAM-1 DNA sequence and plasmid pSV2-neo [Southern et al., J. Mol. Appl. Gen., 1:327341 (1992)]. Cells were selected in DMEM, 10 percent fetal bovine serum and 600 μg/ml Geneticin. sVCAM-1 was purified from supernatants using a column containing monoclonal antibody P3H12 (anti-human VCAM-1) coupled to Sepharose 4B. The sVCAM-1 was eluted using 0.1M glycine at pH 2.5 following 50 column washes with PBS, pH 7.2. The eluate was immediately neutralized and dialyzed against PBS for use.
# VLA-4/CS-1 = molecular target: T2, VLA-4/CS-1 (Homo sapiens, UniProt P05556+P13612); assay: In vitro inhibition of binding of 51Cr-labeled Jurkat cells to solid phase-bound CS-1 peptide; format: cell-based; details: for inhibition potency relative to the Standard 10-mer of SEQ ID NO:6: times more potent than standard 10-mer
# T2 construct: inflammatory cells that contain the VLA-4 receptor [Jurkat cells; host or cells: Jurkat (human T lymphoblastic line)
# T2 sequence (P13612 34-1032): as the sequence (P13612 34-1032) above
# T2 sequence (P05556 21-798): as the sequence (P05556 21-798) above
# Method: Binding inhibition is measured here as a concentration of peptide that inhibits one-half the binding between a standard number of Jurkat cells and a standard amount of CS-1 peptide bound to the surface of a microtiter plate well. Those concentrations are conveniently expressed as IC50 values, smaller numbers indicating a lower concentration required to inhibit 50 percent binding and therefore greater potency. Further specifics of this assay are provided hereinafter.
# Jurkat cells (ATCC TIB 152), a human T lymphoblastic line, labeled with ^51 chromium were used to assay in vitro binding inhibition provided by various peptides discussed herein.
# The plates were prepared as follows: The 25-mer CS-1 peptide (SEQ ID NO:5) dissolved at 0.5-1 μg/ml in a buffer of 0.1M NaHCO3 at pH 9.5 that also contained 10 μg/ml of bovine serum albumin (BSA) or a conjugate of the CS-1 peptide linked to ovalbumin (CS-1-OVA) dissolved at 1-2.5 μg/ml in the same buffer was used as the substrate. Each well of the microtiter plates was coated with 50 μl of substrate or buffer alone for controls. The wells were permitted to dry out completely and were then rinsed twice with PBS at pH 7.4. Non-specific binding sites of each well were then blocked using 200 μl per well of RPMI/1 percent BSA for two hours at room temperature. Both solid phase-affixed substrates provided similar results.
# Jurkat cells (3-5×10^6 cells) were placed into a 15 ml FALCON™ round-bottom tube with a cap. The tube was centrifuged, and the extra medium was then removed.
# Two hundred microliters of a ^51 Cr labeling solution were added to the centrifuged cells and maintained in contact with the cells for 90-120 minutes in a warm room. This procedure typically provides about 50,000-100,000 cpm/well with about 80-100 percent cell viability. Longer contact times provide a greater amount of labeling but lower cell viability.
# The labeled cells were washed with (i) complete medium, (ii) 1 mM EDTA/PBS and then (iii) RPM1/1 percent BSA free of serum components. The cells were centrifuged after each washing. The cells were finally resuspended in serum-free RPMI/1 percent BSA at a concentration of 1×10^6 viable cells/ml, which provides a concentration that is diluted by one-half in the assay.
# Cyclic inhibitor peptides were prepared as stock solutions at 20 mg/ml in DMSO in 1.5 ml cryogenic screwcap vials, and were stored at -70° C. Using FLOW™ round-bottom or V-bottom microtiter plates, the inhibitor peptides were prepared at twice the assay concentration in RPMI/1 percent BSA at 60 μl/well.
# Four initial dilutions were typically used.
# The ^51 Cr-labeled cells (1×10^6 cells at 60 μl/well) were then admixed with the diluted cyclic peptide solutions. The admixtures were maintained at room temperature (about 22° C.) for 30 minutes.
# One hundred microliters of each inhibitor peptide/cell admixture were transferred to the substrate-coated wells. This was done in triplicate for each dilution. The resulting plates were incubated for 30 minutes at 37° C. and then washed gently three times with RPMI/1 percent BSA at 200 μl/well. Binding was observed microscopically, particularly after the second wash.
# The bound cells were then lysed by the addition of a 0.5 percent solution of sodium dodecylsulfate in water at 100 μl/well. The resulting solutions were then processed for counting and calculation of IC50 values following usual procedures. Appropriate positive and negative controls were used with each plate so that the results of separate assays could be normalized and compared.
# The potency data of Table 1 and Table 2 are so normalized. The absolute IC50 value for the peptide of SEQ ID NO:7 is 0.3 μM.
# [4] = Table 2, normalized, relative to standard peptide of SEQ ID NO:6
# [5] = Table 1, normalized IC50, standard peptide of SEQ ID NO:6 = 1
molecule,measurement,setting,value
"CC(C)C[C@@H]1NC(=O)[C@H](Cc2ccccc2)NC(=O)[C@@H](N)CSSC[C@@H](C(N)=O)NC(=O)[C@H](CO)NC(=O)[C@@H]2CCCN2C(=O)[C@H](Cc2ccccc2)NC(=O)[C@H](CC(=O)O)NC1=O [SEQ ID NO:13, CFLDFPSC--NH2] (H-CFLDFPSC-NH2; disulfide 1-8)",transendothelial lymphocyte migration,[1],reduces lymphocyte migration
CS-1 peptide: 25-residue (25-mer) CS-1 portion of fibronectin that binds to the VLA-4 receptor (DELPQLVTLPHPNLHGPEILDVPST) [reference compound],clearance from blood circulation,[2],rapidly cleared
same,time in which potency is lost,[3],less than one
"NC(=O)[C@@H]1CSSC[C@H](NC(=O)Cc2ccccc2)C(=O)N[C@@H](CC(=O)O)C(=O)N[C@@H](Cc2ccccc2)C(=O)N1 [SEQ ID NO:7, N-phenylacetyl-Cys-Asp-Phe-Cys-NH2] (PhAc-CDFC-NH2; disulfide 1-4)","potency relative to the best linear peptide (XLDFZ), Jurkat cell binding to sVCAM-1",VLA-4/sVCAM-1,about 3 times
same,loss of potency after 24 hours,[3]; 24 hours,no loss of potency
same,"potency relative to the best linear peptide (XLDFZ), Jurkat cell binding to CS-1",VLA-4/CS-1,about two-thirds
same,IC50,"VLA-4/CS-1; Jurkat cells, solid phase-bound CS-1, read-out: absolute IC50 value",300 nM
same,Relative Potency,VLA-4/CS-1; [4],954
same,CS-1 binding inhibition potencies relative to each other,VLA-4/CS-1; XLDFp = 1,~1.8
same,inhibition potency relative to the Standard 10-mer of SEQ ID NO:6,VLA-4/CS-1,500-600 and ~563
CC(C)C[C@@H]1NC(=O)[C@H](Cc2ccccc2)NC(=O)[C@H](CCC(=O)O)NC(=O)[C@@H]2CCCN2C(=O)[C@@H](N)CSSC[C@@H](C(N)=O)NC(=O)[C@H](Cc2ccccc2)NC(=O)[C@H](CC(=O)O)NC1=O (H-CPEFLDFC-NH2; disulfide 1-8),Relative Potency,VLA-4/CS-1; [4],56.3
ILDFP-NH2 [compound 27],Relative Potency,VLA-4/CS-1; [5],2
CC(C)C[C@@H]1NC(=O)[C@H](Cc2ccccc2)NC(=O)[C@H](CCC(=O)O)NC(=O)[C@@H]2CCCN2C(=O)[C@@H](N)CSSC[C@@H](C(N)=O)NC(=O)[C@H](CO)NC(=O)[C@@H]2CCCN2C(=O)[C@H](Cc2ccccc2)NC(=O)[C@H](CC(=O)O)NC1=O [compound 19] (H-CPEFLDFPSC-NH2; disulfide 1-10),Relative Potency,VLA-4/CS-1; [5],6
"CC(C)C[C@@H]1NC(=O)[C@H](Cc2ccccc2)NC(=O)[C@@H](N)CSSC[C@@H](C(N)=O)NC(=O)[C@@H]2CCCN2C(=O)[C@H](Cc2ccccc2)NC(=O)[C@H](CC(=O)O)NC1=O [SEQ ID NO:10, CFLDFPC--NH2] (H-CFLDFPC-NH2; disulfide 1-7)",inhibition potency relative to the Standard 10-mer of SEQ ID NO:6,VLA-4/CS-1,about 253
